In US12599597B2, “Substituted N-benzhydrylacetamide inhibitors of jumanji domain histone demethylases for the treatment of cancer” (University of Kentucky Research Foundation, priority 2020, dated 2026):

Tests used:
[1] = biological target: T1, JMJD1A (KDM3A) (Homo sapiens, UniProt Q9Y4C1); test: Histone demethylase assay / KDM3A enzymatic activity in vitro; format: biochemical
T1 sequence (Q9Y4C1 1-1321): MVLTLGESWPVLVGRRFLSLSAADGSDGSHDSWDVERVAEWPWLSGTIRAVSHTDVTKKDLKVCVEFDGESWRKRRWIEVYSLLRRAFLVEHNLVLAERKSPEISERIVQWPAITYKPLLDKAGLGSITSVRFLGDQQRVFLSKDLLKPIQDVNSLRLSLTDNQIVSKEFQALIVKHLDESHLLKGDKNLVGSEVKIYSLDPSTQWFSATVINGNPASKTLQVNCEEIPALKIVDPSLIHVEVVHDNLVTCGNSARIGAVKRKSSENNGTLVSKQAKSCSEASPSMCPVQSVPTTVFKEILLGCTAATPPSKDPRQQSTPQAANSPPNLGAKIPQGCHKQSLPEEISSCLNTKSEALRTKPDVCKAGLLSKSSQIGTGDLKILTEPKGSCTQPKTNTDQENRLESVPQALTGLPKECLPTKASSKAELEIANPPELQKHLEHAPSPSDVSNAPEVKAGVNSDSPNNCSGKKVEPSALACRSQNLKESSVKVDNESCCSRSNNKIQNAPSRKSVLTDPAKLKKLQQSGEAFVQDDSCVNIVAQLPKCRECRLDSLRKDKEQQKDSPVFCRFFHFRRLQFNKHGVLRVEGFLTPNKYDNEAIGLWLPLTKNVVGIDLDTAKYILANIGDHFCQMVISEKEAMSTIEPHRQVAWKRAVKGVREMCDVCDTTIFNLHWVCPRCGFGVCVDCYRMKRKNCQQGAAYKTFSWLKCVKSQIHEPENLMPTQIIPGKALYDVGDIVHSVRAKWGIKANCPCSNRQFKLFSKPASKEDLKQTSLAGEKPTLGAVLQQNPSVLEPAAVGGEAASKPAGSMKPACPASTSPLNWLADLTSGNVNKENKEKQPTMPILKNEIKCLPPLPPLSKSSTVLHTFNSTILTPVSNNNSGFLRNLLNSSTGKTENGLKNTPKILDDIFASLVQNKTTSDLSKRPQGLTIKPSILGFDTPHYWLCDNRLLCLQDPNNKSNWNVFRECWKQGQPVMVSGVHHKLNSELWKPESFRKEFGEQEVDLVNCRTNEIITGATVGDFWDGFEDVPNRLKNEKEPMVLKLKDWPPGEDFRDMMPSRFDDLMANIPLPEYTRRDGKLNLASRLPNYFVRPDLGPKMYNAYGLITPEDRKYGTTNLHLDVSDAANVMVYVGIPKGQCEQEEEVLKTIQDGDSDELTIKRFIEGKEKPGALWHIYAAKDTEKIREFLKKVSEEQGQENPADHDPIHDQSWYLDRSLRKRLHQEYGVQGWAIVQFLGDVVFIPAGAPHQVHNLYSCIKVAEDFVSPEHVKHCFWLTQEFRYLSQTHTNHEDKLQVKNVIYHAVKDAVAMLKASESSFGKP
Excerpt: Histone Demethylase Assay
To further examine the effects of 58B1 on histone demethylase, we screened a panel of purified histone demethylases was screened.
Identification of KDM3A as a target of CBA-1. KDM3A regulated H3K9Me^2 and underwent significant upregulation in CRC. To test if CBA-1 targeted KDM3A, a biotinylated analog CBA-B2 (FIG. 7A) was synthesized. […] Knocking-down KDM3A by shRNA inhibited cell proliferation (FIG. 7D) and Wnt target gene expression in LS174T CRC cells (FIG. 7E).
(§1) Repurposing drugs as CBA-1 analogs and KDM3 inhibitors. CBA-1 is a specific and potent KDM3A inhibitor. As backup candidates, two approved drugs were identified as CBA-1 analogs and KDM3A inhibitors. Based on the docking study (FIGS. 8A-B), the N and OH groups (red color in FIG. 12A) are critical in binding the Mn^2+ in KDM3A. […] A virtual screening was performed and several antibiotics that have similar structures were identified. Two of these antibiotics, clioquinol and nitroxoline (FIG. 12B), indeed inhibited the enzymatic activities of KDM3 (FIGS. 12C and D). These two drugs were tested in LS174T tumor xenograft model in SCID mice. […] Nitroxoline has been used in Europe for over 50 years as an antibiotic. It has anticancer effects, but the mechanism remains unclear.

[2] = test system: CRC cells; test: CRC cell proliferation; format: cell-based
Excerpt: KDM3A is a Jumonji domain-containing demethylase that regulates the demethylation of histone H3's lysine 9 (H3K9Me^2).

[3] = test system: DLD1; test: Colon cancer cell proliferation; format: cell-based
Protocol: (§2) FIGS. 5A-B show an image and graph illustrating validation of CBA-1. (A) CBA-1 repressed Wnt targets in LS174T CRC cells. (B) CBA-1 inhibited CRC cell proliferation (5d, Vi-Cell viability assay).
(§3) The effects of these compounds on proliferation of colon cancer cell line LS174T and DLD1 were analyzed.
(§4) Identification of a CBA-1 as a novel Wnt inhibitor. The present inventors routinely use TOPFlash reporter assay for Wnt inhibitor screening. To mimic the constitutively active Wnt signaling found in CRC cells, Wnt signaling was activated by inhibiting GSK3 and stabilizing β-catenin. From screening in house small-molecule libraries, CBA-1 (FIG. 4) was identified that inhibited Wnt signaling in TOPFlash reporter assay. To validate the screening results, CBA-1 was tested in CRC cells.

[4] = test system: LS174T; test: Colon cancer cell proliferation; format: cell-based
Protocol: as §2, §3, §4

[5] = test system: SW620; test: Colon cancer cell proliferation; format: cell-based; settings: SW620 (APC mutation); 5d, Vi-Cell viability assay
Excerpt: as §2, §4

[6] = biological target: KDM3B (Homo sapiens, UniProt Q7LBC6); test: KDM3B enzymatic activity; format: biochemical; settings: at 10 μM
KDM3B, sequence (Q7LBC6 whole entry, the tested form may be a part): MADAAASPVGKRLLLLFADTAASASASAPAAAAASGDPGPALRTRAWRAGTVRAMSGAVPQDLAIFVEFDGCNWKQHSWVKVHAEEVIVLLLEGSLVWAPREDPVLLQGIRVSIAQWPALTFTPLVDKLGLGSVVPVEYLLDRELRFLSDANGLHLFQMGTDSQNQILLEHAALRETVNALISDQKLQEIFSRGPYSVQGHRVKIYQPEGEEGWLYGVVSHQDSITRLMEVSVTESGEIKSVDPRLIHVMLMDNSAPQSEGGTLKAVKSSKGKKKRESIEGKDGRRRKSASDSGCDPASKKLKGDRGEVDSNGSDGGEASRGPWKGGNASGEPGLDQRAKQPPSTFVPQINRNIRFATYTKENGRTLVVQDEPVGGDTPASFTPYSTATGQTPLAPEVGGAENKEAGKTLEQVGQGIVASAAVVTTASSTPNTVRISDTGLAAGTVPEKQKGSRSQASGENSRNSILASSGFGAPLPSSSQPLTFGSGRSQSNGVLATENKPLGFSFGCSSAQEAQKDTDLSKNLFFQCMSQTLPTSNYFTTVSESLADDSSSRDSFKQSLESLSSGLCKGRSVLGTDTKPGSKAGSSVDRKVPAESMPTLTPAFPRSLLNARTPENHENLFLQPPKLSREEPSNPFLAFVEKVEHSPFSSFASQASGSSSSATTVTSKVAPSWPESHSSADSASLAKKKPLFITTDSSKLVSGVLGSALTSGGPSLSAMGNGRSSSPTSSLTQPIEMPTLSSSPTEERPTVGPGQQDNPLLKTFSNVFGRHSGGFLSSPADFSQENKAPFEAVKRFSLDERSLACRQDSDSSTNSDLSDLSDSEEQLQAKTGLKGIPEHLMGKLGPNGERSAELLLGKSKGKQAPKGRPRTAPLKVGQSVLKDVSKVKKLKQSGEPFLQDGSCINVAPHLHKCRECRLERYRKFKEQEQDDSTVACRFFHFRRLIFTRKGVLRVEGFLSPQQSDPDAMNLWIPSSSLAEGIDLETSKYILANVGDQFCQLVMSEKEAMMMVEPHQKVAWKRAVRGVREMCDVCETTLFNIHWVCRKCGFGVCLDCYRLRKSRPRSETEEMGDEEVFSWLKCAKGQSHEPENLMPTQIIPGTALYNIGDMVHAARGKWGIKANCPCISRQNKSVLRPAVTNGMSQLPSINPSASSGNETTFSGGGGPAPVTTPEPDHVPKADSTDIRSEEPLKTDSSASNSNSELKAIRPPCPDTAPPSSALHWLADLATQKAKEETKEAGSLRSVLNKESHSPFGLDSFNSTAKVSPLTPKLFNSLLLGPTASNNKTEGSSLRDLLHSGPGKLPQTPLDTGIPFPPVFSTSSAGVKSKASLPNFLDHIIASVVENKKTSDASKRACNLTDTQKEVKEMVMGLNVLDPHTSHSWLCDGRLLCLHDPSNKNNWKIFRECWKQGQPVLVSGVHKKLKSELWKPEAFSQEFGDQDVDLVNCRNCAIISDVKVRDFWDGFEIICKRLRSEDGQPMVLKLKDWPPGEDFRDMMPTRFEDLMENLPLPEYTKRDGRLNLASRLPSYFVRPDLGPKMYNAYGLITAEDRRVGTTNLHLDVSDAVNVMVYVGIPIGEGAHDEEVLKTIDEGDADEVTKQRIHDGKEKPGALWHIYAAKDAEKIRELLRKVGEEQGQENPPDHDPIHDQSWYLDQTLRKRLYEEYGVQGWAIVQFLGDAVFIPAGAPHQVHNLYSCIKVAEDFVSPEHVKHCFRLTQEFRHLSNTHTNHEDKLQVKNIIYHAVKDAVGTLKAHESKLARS
Excerpt: Other KDM3 members as CBA-1 targets. Inhibition of KDM3A by CBA-1 increased H3K9Me^2 and inhibited Wnt signaling; however, other KDM3 members may also regulate H3K9 methylation. For example, both KDM3B and KDM3C (JMJD1C) regulated Wnt signaling. Given the high similarity of their structures (FIG. 10A), particularly the JmjC domains, it is believed that CBA-1 would inhibit KDM3B and KDM3C as well. […] CBA-1 coordinated with Mn^2+ at a longer distance in KDM3B (3.9 Å) than the distance in KDM3A (2.8 Å) (FIGS. 8B and 10B). This could be one of the reasons that CBA-1 inhibited KDM3A better than KDM3B.
as §1

SMILES: CCCC(=O)NC(c1ccc(N(CC)CC)cc1)c1cc(Cl)c2cccnc2c1O (stereo not shown) [58B1]
- inhibition at 10 µM ([1]; 58B1, 10 μM): 99%
- KDM3A activity in vitro, dose-response study ([1]; at low micromolar levels): inhibited
- CRC cell proliferation ([2]; at 100 nM concentration): inhibited
- sensitivity of CRC cells compared with normal colon cells ([2]; expected): more sensitive
- proliferation of CRC cell lines ([3]; DLD1 (APC mutation), 5d, Vi-Cell viability assay): inhibited proliferation
- proliferation of colon cancer cell line ([3]; DLD1, at low nanomolar concentrations): strongly inhibited
- proliferation of CRC cell lines ([4]; LS174T (β-catenin mutation), 5d, Vi-Cell viability assay): inhibited proliferation
- proliferation of colon cancer cell line ([4]; LS174T, at low nanomolar concentrations): strongly inhibited
- proliferation of CRC cell lines [5]: inhibited proliferation
- KDM3B inhibition [6]: weakly inhibits
